Measurements: US9145425B2, “Cephem compound having catechol group” (SHIONOGI & CO., LTD., priority 2010, dated 2015)
Values after ≈ are worked out from the molar mass of the structure shown.

Key:
Type in all cases: cell-based
[1] = system: Stenotrophomonas maltophilia SR21970; assay: Minimum Inhibitory Concentration (MIC), agar plate incubation, CLSI method; settings: Stenotrophomonas maltophilia SR21970, L-1, MBL producer strain (carbapenem resistant strain), 10000 cfu/spot, Mueller-Hinton agar medium; for MIC: read-out: Minimum Inhibitory Concentration (MIC)
Protocol: (§1) The antimicrobial activity in vitro of the present compound (I) was determined.
Measurement of Minimum Inhibitory Concentration (MIC, μg/ml) was conducted according to the CLSI (Clinical and Laboratory Standards Institute) and the amount of bacteria for inoculation was 10000 cfu/spot, and Mueller-Hinton agar medium was used as the test medium, and conducted using agar plate incubation.
(§2) In the tables, the unit of the values of inhibitory activity is μg/ml.

[2] = system: Klebsiella pneumoniae ATCC 700603; assay: Minimum Inhibitory Concentration (MIC), agar plate incubation, Japan Society for Chemotherapy standard method; settings: Klebsiella pneumoniae ATCC 700603, SHV-18, ESBL producer strain, 1000 cfu/spot, sensitive disc medium; for MIC: ATCC700603, read-out: Minimum Inhibitory Concentration (MIC)
Protocol: as §1
(§3) Measurement of Minimum Inhibitory Concentration (MIC, μg/ml) was conducted according to the standard method of the Japan Society for Chemotherapy and the amount of bacteria for inoculation was 1000 cfu/spot, and sensitive disc medium was used as the test medium, and conducted using agar plate incubation.
as §2

[3] = system: Acinetobacter baumannii SR24396; assay: as above; settings: Acinetobacter baumannii SR24396, no enzyme, 1000 cfu/spot, sensitive disc medium; for MIC: read-out: Minimum Inhibitory Concentration (MIC)
Protocol: as §1, §3, §2

[4] = system: Pseudomonas aeruginosa SR24; assay: as above; settings: Pseudomonas aeruginosa SR24, no enzyme, ceftazidime sensitive strain, 1000 cfu/spot, sensitive disc medium; for MIC: read-out: Minimum Inhibitory Concentration (MIC)
Protocol: as §1, §3, §2

[5] = system: Pseudomonas aeruginosa SR27060; assay: as above; settings: Pseudomonas aeruginosa SR27060, IMP-1, MBL producer strain (carbapenem resistant strain), 1000 cfu/spot, sensitive disc medium; for MIC: read-out: Minimum Inhibitory Concentration (MIC)
Protocol: as §1, §3, §2

| SMILES | Minimum Inhibitory Concentration (MIC) [1] [µg/mL] | Minimum Inhibitory Concentration (MIC) [2] [µg/mL] | Minimum Inhibitory Concentration (MIC) [3] [µg/mL] | Minimum Inhibitory Concentration (MIC) [4] [µg/mL] | Minimum Inhibitory Concentration (MIC) [5] [µg/mL] | MIC [1] [µg/mL] | MIC [2] [µg/mL] | MIC [3] [µg/mL] | MIC [4] [µg/mL] | MIC [5] [µg/mL] |
| --- | --- | --- | --- | --- | --- | --- | --- | --- | --- | --- |
| CC(C)(O/N=C(\C(=O)N[C@@H]1C(=O)N2C(C(=O)[O-])=C(C[N+]3(C)CCC4(CCN(C(=O)c5ccc(O)c(O)c5Cl)CC4)CC3)CS[C@H]12)c1csc(N)n1)C(=O)[O-].[Na+] [Compound I-42] | 1 | 0.25 | 0.25 | 0.063 | 1 |  |  |  |  |  |
| Nc1nc(/C(=N/O[C@H](C(=O)[O-])c2ccccc2)C(=O)N[C@@H]2C(=O)N3C(C(=O)[O-])=C(C[N+]4(CCNC(=O)c5ccc(O)c(O)c5Cl)CCCC4)CS[C@H]23)ns1.[Na+] [Compound I-51] | 1 | 0.25 | 0.125 | 0.063 | 0.5 |  |  |  |  |  |
| C[N+]1(CC2=C(C(=O)[O-])N3C(=O)[C@@H](NC(=O)/C(=N\O[C@@H](CC(=O)[O-])C(=O)[O-])c4csc(N)n4)[C@H]3SC2)[C@@H]2CC[C@H]1C[C@@H](NC(=O)c1ccc(O)c(O)c1F)C2.[Na+].[Na+] (stereo partly shown) [II-37] | 0.5 | 0.5 | 0.25 | 0.25 | 0.25 |  |  |  |  |  |
| CC(C)(O/N=C(\C(=O)N[C@@H]1C(=O)N2C(C(=O)[O-])=C(C[N+]34CCC(CC3)N(C(=O)c3ccc(O)c(O)c3Cl)CC4)CS[C@H]12)c1csc(N)n1)C(=O)[O-].[Na+] [Compound I-5] |  |  |  |  |  | 0.5 | 0.25 | 0.125 | 0.063 | 0.5 |
| C[N+]1(CC2=C(C(=O)[O-])N3C(=O)[C@@H](NC(=O)/C(=N\O[C@@H](CC(=O)[O-])C(=O)[O-])c4csc(N)n4)[C@H]3SC2)[C@@H]2CC[C@H]1C[C@@H](NC(=O)c1cc(O)c(O)c(F)c1)C2.[Na+].[Na+] (stereo partly shown) [II-48] | 0.5 | 0.25 | 0.125 | 0.063 | 0.25 |  |  |  |  |  |
| C[N+]1(CC2=C(C(=O)[O-])N3C(=O)[C@@H](NC(=O)/C(=N\O[C@@H](CC(=O)[O-])C(=O)[O-])c4nc(N)sc4Cl)[C@H]3SC2)[C@@H]2CC[C@H]1C[C@@H](NC(=O)c1ccc(O)c(O)c1Cl)C2.[Na+].[Na+] (stereo partly shown) [II-5] | 4 | 0.5 | 0.125 | 0.125 | 0.25 |  |  |  |  |  |
| C[N+]1(CC2=C(C(=O)[O-])N3C(=O)C(NC(=O)C(=NOC(CC(=O)O)C(=O)[O-])c4csc(N)n4)C3SC2)C2CCC1CC(NC(=O)c1ccc(O)c(O)c1C(F)(F)F)C2.[Na+] (stereo not shown) [III-14] | 0.25 | 0.5 | 0.125 | 0.25 | 0.5 |  |  |  |  |  |
| C[N+]1(CC2=C(C(=O)[O-])N3C(=O)[C@@H](NC(=O)/C(=N\O[C@@H](CC(=O)O)C(=O)O)c4csc(N)n4)[C@H]3SC2)[C@@H]2CC[C@H]1C[C@@H](NC(=O)c1ccc(O)c(O)c1Cl)C2 (stereo partly shown) [II-3] |  |  |  |  |  | 0.5 (≈ 0.619 µM) | 0.5 (≈ 0.619 µM) | 0.125 (≈ 0.155 µM) | 0.125 (≈ 0.155 µM) | 0.5 (≈ 0.619 µM) |
| CC(C)(O/N=C(\C(=O)N[C@@H]1C(=O)N2C(C(=O)[O-])=C(C[N+]3(CCNC(=O)c4cc(O)c(O)c(F)c4)CCCC3)CS[C@H]12)c1csc(N)n1)C(=O)[O-].[Na+] [II-15] | 0.5 | 0.125 | 0.125 | 0.063 | 0.25 |  |  |  |  |  |
| CC(ON=C(C(=O)NC1C(=O)N2C(C(=O)[O-])=C(C[N+]34CCCC3CN(C(=O)c3ccc(O)c(O)c3Cl)CC4)CSC12)c1csc(N)n1)C(=O)[O-].[Na+] (stereo not shown) [Compound I-18] | 2 | 0.5 | 0.125 | 0.063 | 1 |  |  |  |  |  |
| C[N+]1(CC2=C(C(=O)[O-])N3C(=O)C(NC(=O)C(=NOC(CC(=O)[O-])C(=O)[O-])c4csc(N)n4)C3SC2)CC2CN(C(=O)c3ccc(O)c(O)c3Cl)CC2C1.[Na+].[Na+] (stereo not shown) [Compound I-41] | 1 | 0.5 | 0.125 | 0.125 | 0.5 |  |  |  |  |  |
| C[N+]1(CC2=C(C(=O)[O-])N3C(=O)C(NC(=O)C(=NOC(CC(=O)[O-])C(=O)[O-])c4csc(N)n4)C3SC2)C2CCC1CN(C(=O)c1ccc(O)c(O)c1Cl)C2.[Na+].[Na+] (stereo not shown) [II-7] | 0.5 | 0.5 | 0.125 | 0.25 | 0.5 |  |  |  |  |  |
| Nc1nc(/C(=N/O[C@@H](CC(=O)[O-])C(=O)[O-])C(=O)N[C@@H]2C(=O)N3C(C(=O)[O-])=C(C[N+]45CCC[C@H]4CN(C(=O)c4cc(O)c(O)c(Cl)c4)CC5)CS[C@H]23)cs1.[Na+].[Na+] (stereo partly shown) [II-57] | 0.5 | 0.25 | 0.063 | 0.063 | 0.5 |  |  |  |  |  |
| C[N+]1(CC2=C(C(=O)[O-])N3C(=O)C(NC(=O)C(=NOC(CC(=O)O)C(=O)[O-])c4csc(N)n4)C3SC2)C2CCC1CC(NC(=O)c1cc(O)c(O)c(Cl)c1)C2.[Na+] (stereo not shown) [II-51] | 0.25 | 0.25 | 0.125 | 0.125 | 0.25 |  |  |  |  |  |
| C[N+]1(CC2=C(C(=O)[O-])N3C(=O)[C@@H](NC(=O)/C(=N\O[C@@H](CC(=O)O)C(=O)O)c4csc(N)n4)[C@H]3SC2)[C@@H]2CC[C@H]1C[C@H](NC(=O)c1ccc(O)c(O)c1Cl)C2 (stereo partly shown) [II-9] |  |  |  |  |  | 0.25 (≈ 0.309 µM) | 1 (≈ 1.24 µM) | 0.063 (≈ 0.0779 µM) | 0.25 (≈ 0.309 µM) | 0.5 (≈ 0.619 µM) |
| CC(ON=C(C(=O)NC1C(=O)N2C(C(=O)[O-])=C(C[N+]3(CCNC(=O)c4ccc(O)c(O)c4Cl)CCCC3)CSC12)c1csc(N)n1)C(=O)[O-].[Na+] (stereo not shown) [Compound I-36] | 1 | 0.5 | 0.5 | 0.125 | 0.25 |  |  |  |  |  |
| Nc1nc(/C(=N/O[C@@H](CC(=O)[O-])C(=O)[O-])C(=O)N[C@@H]2C(=O)N3C(C(=O)[O-])=C(C[N+]45CCC(CC4)N(C(=O)c4ccc(O)c(O)c4Cl)CC5)CS[C@H]23)cs1.[Na+].[Na+] [Compound I-9] |  |  |  |  |  | 0.5 | 0.125 | 0.125 | 0.063 | 0.25 |
